Data as given in ChEMBL document CHEMBL5154770, “Discovery of novel ataxia telangiectasia mutated (ATM) kinase modulators: Computational simulation, biological evaluation and cancer combinational chemotherapy study” (Eur J Med Chem, 2022).
Values belong to the compound of their own block, whether it stands above or below them. Active and inactive are the calls of the source. The rule behind the calls is not given here.

Columns and labels:
SW480 [1] = assay: Antagonistic cytotoxicity against human SW480 cells measured after 3 days in presence of 50 nM AZD0156 by SRB assay; assay type: functional, cell-based; settings: SW480, 72 h
MCF7 [2] = assay: Synergistic cytotoxicity against human MCF7 cells measured after 6 days in presence of 5 uM KU60019 by SRB assay; assay type: functional, cell-based; settings: MCF7, 144 h
MCF7 [3] = assay: Synergistic cytotoxicity against human MCF7 cells assessed as combination index measured after 6 days in presence of 5 uM KU55933 by SRB assay; assay type: functional; settings: time 6 day
MCF7 [4] = assay: Synergistic cytotoxicity against human MCF7 cells in presence of 10 uM 3-Chloro-4-methoxy-N-((4-(oxazolo[4,5-b]pyridin-2-yl)phenyl)carbamothioyl)benzamide measured after 2 days by SRB assay; assay type: functional, cell-based; settings: MCF7, 48 h
MCF7 [5] = assay: Additive cytotoxicity against human MCF7 cells assessed as combination index in presence of 10 uM 3-Chloro-4-methoxy-N-((4-(oxazolo[4,5-b]pyridin-2-yl)phenyl)carbamothioyl)benzamide measured after 6 days by SRB assay; assay type: functional; settings: time 6 day
MCF7 [6] = assay: Induction of apoptosis in human MCF7 cells at 62 nM in presence of 1 to 5 uM KU60019 measured after 6 days by Annexin V-FITC/propidium iodide staining based flow cytometry analysis; assay type: functional, cell-based; settings: time 6.0 day
MCF7 [7] = assay: Induction of apoptosis in human MCF7 cells at 62 nM in presence of 50 nM AZD0156 measured after 6 days by Annexin V-FITC/propidium iodide staining based flow cytometry analysis; assay type: functional, cell-based; settings: time 6.0 day
MCF7 [8] = assay: Induction of cell cycle arrest in human MCF7 cells assessed as accumulation of cells at S-phase measured after 24 hrs by PI staining based flow cytometric analysis; assay type: functional; settings: DDE = dose-dependent effect
MCF7 [9] = assay: Induction of cell cycle arrest in human MCF7 cells assessed as accumulation of cells at S-phase in presence of 5 uM KU60019 measured after 24 hrs by PI staining based flow cytometric analysis; assay type: functional
MCF7 [10] = assay: Induction of cell cycle arrest in human MCF7 cells assessed as decrease in accumulation of cells at G1-phase in presence of 5 uM KU60019 measured after 24 hrs by PI staining based flow cytometric analysis; assay type: functional
[11] = biological target: T1, Serine-protein kinase ATM (Homo sapiens, UniProt Q13315); assay: Inhibition of ATM (unknown origin) assessed as decrease in phosphorylation of ATM at 25 uM measured in presence of 1 to 5 uM KU60019 by Western blot analysis
[12] = biological target: T1, Serine-protein kinase ATM; assay: Inhibition of ATM (unknown origin) assessed as decrease in phosphorylation of ATM at 25 uM measured in presence of 50 nM AZD0156 by Western blot analysis
[13] = biological target: T1, Serine-protein kinase ATM; assay: Inhibition of ATM (unknown origin) assessed as decrease in phosphorylation of KAP1 at 25 uM measured in presence of 1 to 5 uM KU60019 by Western blot analysis
[14] = biological target: T1, Serine-protein kinase ATM; assay: Inhibition of ATM (unknown origin) assessed as decrease in phosphorylation of KAP1 at 25 uM measured in presence of 50 nM AZD0156 by Western blot analysis
[15] = biological target: T1, Serine-protein kinase ATM; assay: Inhibition of ATM (unknown origin) assessed as decrease in phosphorylation of p21 at 25 uM measured in presence of 1 uM KU60019 by Western blot analysis
[16] = biological target: T1, Serine-protein kinase ATM; assay: Inhibition of ATM (unknown origin) assessed as decrease in phosphorylation of p21 at 25 uM measured in presence of 5 uM KU60019 by Western blot analysis
[17] = biological target: T1, Serine-protein kinase ATM; assay: Inhibition of ATM (unknown origin) assessed as decrease in phosphorylation of p21 at 25 uM measured in presence of 50 nM AZD0156 by Western blot analysis
NCI-H1299 [18] = assay: Synergistic cytotoxicity against human NCI-H1299 cells measured in presence of 5 uM KU60019 after 2 days by SRB assay; assay type: functional, cell-based; settings: NCI-H1299, 48 h
NCI-H1299 [19] = assay: Synergistic cytotoxicity against human NCI-H1299 cells measured in presence of 50 nM AZD0156 after 2 days by SRB assay; assay type: functional, cell-based; settings: NCI-H1299, 48 h
NCI-H1299 [20] = assay: Synergistic cytotoxicity against human NCI-H1299 cells assessed as combination index measured in presence of 5 uM KU60019 after 2 days by SRB assay; assay type: functional; settings: time 2 day
NCI-H1299 [21] = assay: Synergistic cytotoxicity against human NCI-H1299 cells assessed as combination index measured in presence of 50 nM AZD0156 after 2 days by SRB assay; assay type: functional; settings: time 2 day
NCI-H1299 [22] = assay: Cytotoxicity against human NCI-H1299 cells measured in presence of 5 uM 2(((2-(2,4-dichlorobenzyl)oxy)naphthalen-1-yl)methyl)amino)ethan-1-ol after 6 days by SRB assay; assay type: functional, cell-based; settings: NCI-H1299, 144 h
MCF7 [23] = assay: cells; settings: Homo sapiens, MCF7, 144 h
MCF7 [24] = assay: cells; settings: Homo sapiens, MCF7, 144 h; remark: listed apart in the source
MCF7 [25] = assay: Additive cytotoxicity against human MCF7 cells measured after 6 days in presence of 5 uM KU55933 by SRB assay; assay type: functional; settings: time 6 day
MCF7 [26] = assay: Additive cytotoxicity against human MCF7 cells assessed as combination index measured after 6 days in presence of 5 uM KU55933 by SRB assay; assay type: functional; settings: time 6 day
MCF7 [27] = assay: Antagonistic cytotoxicity against human MCF7 cells in presence of 30 uM 3-Chloro-4-methoxy-N-((4-(oxazolo[4,5-b]pyridin-2-yl)phenyl)carbamothioyl)benzamide measured after 6 days by SRB assay; assay type: functional, cell-based; settings: MCF7, 144 h
MCF7 [28] = assay: Antagonistic cytotoxicity against human MCF7 cells assessed as combination index in presence of 30 uM 3-Chloro-4-methoxy-N-((4-(oxazolo[4,5-b]pyridin-2-yl)phenyl)carbamothioyl)benzamide measured after 6 days by SRB assay; assay type: functional; settings: time 6 day
NCI-H1299 [29] = assay: Additive cytotoxicity against human NCI-H1299 cells measured in presence of 5 uM KU60019 after 2 days by SRB assay; assay type: functional, cell-based; settings: NCI-H1299, 48 h
NCI-H1299 [30] = assay: Antagonistic cytotoxicity against human NCI-H1299 cells measured in presence of 50 nM AZD0156 after 2 days by SRB assay; assay type: functional, cell-based; settings: NCI-H1299, 48 h
NCI-H1299 [31] = assay: Additive cytotoxicity against human NCI-H1299 cells assessed as combination index measured in presence of 5 uM KU60019 after 2 days by SRB assay; assay type: functional; settings: time 2 day
NCI-H1299 [32] = assay: Antagonistic cytotoxicity against human NCI-H1299 cells assessed as combination index measured in presence of 50 nM AZD0156 after 2 days by SRB assay; assay type: functional; settings: time 2 day
SW480 [33] = assay: Antitumor activity against human SW480 cells xenografted in BALB/c nude mouse assessed as reduction in tumor weight at 20 mg/kg, ip; assay type: functional, organism-based
SW480 [34] = assay: Antitumor activity against human SW480 cells xenografted in BALB/c nude mouse assessed as reduction in tumor weight at 20 mg/kg, ip in presence of 30 mg/kg, iv 2(((2-(2,4-dichlorobenzyl)oxy)naphthalen-1-yl)methyl)amino)ethan-1-ol; assay type: functional, organism-based
MCF7 [35] = assay: cells; settings: Homo sapiens, MCF7, 144 h; remark: listed apart in the source

T1 sequence (Q13315 whole entry): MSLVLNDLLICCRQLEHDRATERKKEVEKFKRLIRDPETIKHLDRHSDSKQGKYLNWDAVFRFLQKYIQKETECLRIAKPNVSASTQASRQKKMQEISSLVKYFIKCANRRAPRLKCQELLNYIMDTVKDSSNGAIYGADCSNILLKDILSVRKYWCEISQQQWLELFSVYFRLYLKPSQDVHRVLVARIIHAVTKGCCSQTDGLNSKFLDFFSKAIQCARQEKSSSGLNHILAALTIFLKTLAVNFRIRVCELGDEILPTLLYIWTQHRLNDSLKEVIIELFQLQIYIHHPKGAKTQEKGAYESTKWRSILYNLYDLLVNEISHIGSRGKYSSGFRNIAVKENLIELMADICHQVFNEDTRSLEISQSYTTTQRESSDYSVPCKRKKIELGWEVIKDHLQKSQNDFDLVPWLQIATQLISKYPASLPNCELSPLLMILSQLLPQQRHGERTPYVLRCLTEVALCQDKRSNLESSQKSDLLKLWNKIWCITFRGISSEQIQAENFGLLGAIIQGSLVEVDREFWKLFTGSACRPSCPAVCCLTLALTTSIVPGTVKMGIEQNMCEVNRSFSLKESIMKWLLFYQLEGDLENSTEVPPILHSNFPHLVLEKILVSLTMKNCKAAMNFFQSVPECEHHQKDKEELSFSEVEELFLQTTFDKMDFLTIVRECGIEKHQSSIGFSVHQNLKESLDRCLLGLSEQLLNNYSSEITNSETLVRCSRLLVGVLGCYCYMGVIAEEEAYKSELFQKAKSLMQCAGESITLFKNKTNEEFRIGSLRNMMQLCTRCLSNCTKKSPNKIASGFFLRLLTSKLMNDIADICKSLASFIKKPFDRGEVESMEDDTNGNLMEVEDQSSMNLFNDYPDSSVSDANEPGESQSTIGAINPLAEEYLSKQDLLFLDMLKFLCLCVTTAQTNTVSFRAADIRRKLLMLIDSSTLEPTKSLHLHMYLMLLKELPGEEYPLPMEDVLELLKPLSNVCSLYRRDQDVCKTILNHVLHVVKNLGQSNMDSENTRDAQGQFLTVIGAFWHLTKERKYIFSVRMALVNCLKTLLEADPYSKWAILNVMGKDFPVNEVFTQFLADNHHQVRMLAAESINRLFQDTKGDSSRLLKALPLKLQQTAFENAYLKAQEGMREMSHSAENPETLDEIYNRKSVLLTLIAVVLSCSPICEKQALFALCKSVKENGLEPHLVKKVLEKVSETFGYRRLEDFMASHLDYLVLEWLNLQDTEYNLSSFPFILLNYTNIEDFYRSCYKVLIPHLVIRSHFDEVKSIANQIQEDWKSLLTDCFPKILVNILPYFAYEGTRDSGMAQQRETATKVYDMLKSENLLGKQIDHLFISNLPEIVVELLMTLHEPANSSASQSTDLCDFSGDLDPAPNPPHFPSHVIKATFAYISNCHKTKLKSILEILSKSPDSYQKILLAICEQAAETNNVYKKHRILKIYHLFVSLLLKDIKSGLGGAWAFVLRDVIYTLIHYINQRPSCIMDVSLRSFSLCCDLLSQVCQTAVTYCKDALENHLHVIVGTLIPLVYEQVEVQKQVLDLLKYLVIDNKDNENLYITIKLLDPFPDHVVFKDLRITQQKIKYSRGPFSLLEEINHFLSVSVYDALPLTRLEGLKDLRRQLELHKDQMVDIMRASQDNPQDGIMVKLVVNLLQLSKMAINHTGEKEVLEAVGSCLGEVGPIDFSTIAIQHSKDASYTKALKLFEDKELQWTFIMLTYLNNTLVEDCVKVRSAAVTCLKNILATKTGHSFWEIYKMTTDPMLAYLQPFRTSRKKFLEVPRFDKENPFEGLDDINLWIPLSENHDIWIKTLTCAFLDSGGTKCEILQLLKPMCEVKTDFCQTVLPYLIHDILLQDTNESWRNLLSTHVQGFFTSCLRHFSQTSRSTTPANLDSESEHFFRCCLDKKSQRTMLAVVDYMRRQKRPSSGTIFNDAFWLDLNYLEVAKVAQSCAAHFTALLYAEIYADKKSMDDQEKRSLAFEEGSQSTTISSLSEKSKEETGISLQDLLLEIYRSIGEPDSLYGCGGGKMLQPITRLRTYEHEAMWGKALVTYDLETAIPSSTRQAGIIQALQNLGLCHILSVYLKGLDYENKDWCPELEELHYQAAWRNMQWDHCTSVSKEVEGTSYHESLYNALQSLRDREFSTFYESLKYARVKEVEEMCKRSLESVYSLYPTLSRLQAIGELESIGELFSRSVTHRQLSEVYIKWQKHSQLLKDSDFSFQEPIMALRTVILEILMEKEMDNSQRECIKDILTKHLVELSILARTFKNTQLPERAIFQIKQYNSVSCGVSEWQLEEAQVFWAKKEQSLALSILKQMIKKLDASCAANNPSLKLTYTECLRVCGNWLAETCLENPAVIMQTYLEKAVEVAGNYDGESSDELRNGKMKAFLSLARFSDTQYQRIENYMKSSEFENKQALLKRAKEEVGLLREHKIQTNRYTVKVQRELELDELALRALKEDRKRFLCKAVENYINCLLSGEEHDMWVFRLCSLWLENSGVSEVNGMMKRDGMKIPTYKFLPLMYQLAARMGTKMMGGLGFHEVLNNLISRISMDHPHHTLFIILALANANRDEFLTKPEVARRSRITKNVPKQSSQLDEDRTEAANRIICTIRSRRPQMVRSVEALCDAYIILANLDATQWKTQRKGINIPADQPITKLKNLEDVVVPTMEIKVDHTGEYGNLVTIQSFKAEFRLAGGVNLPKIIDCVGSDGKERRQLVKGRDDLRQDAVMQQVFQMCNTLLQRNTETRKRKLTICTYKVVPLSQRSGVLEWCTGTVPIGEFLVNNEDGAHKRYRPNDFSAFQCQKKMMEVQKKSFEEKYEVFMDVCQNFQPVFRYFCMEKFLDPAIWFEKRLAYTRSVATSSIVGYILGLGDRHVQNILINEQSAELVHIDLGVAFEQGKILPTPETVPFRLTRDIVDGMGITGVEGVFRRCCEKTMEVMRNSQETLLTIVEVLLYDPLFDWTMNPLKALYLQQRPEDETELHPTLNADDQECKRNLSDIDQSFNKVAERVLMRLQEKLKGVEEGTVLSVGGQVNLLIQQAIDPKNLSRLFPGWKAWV

inhibition [11]: Active
inhibition [12]: Active
inhibition [13]: Active
inhibition [14]: Active
inhibition [15]: 25%
inhibition [16]: 53%
inhibition [17]: 41%
IC50 (MCF7 [23]): 590 nM
IC50 (MCF7 [24]): 560 nM
Compound: COc1cc([C@@H]2c3cc4c(cc3[C@@H](O[C@@H]3O[C@@H]5CO[C@@H](C)O[C@H]5[C@H](O)[C@H]3O)[C@H]3COC(=O)[C@H]23)OCO4)cc(OC)c1O [ETOPOSIDE]
IC50 (SW480 [1]): 3600 nM
IC50 (MCF7 [2]): 60 nM
CI (MCF7 [3]): 0.73
IC50 (MCF7 [4]): 23600 nM
CI (MCF7 [5]): 1.01
Activity (MCF7 [6]): Active
Activity (MCF7 [7]): Active
Activity (MCF7 [8]): Dde
Activity (MCF7 [9]): Active
Activity (MCF7 [10]): Active
IC50 (NCI-H1299 [18]): 5750 nM
IC50 (NCI-H1299 [19]): 8860 nM
CI (NCI-H1299 [20]): 0.84
CI (NCI-H1299 [21]): 0.82
IC50 (NCI-H1299 [22]): 710 nM

IC50 (MCF7 [35]): 210 nM
Compound: CCc1c2c(nc3ccc(OC(=O)N4CCC(N5CCCCC5)CC4)cc13)-c1cc3c(c(=O)n1C2)COC(=O)[C@]3(O)CC [IRINOTECAN]
IC50 (MCF7 [2]): 1980 nM
CI (MCF7 [25]): 0.16
CI (MCF7 [26]): 0.18
IC50 (MCF7 [4]): 26300 nM
IC50 (MCF7 [27]): 2420 nM
CI (MCF7 [28]): 1.49
IC50 (NCI-H1299 [29]): 9830 nM
IC50 (NCI-H1299 [30]): 15200 nM
CI (NCI-H1299 [31]): 1.04
CI (NCI-H1299 [32]): 1.13
IC50 (NCI-H1299 [22]): 1830 nM
Activity (SW480 [33]): Active
Activity (SW480 [34]): Active
